# From PMC12239085, “Silver(I) Ions Bridging Oxadiazole-2-thione Derivatives with Mitochondriotropic Agents: A Promising Strategy for Potent Anticancer Chemotherapy” (Inorganic Chemistry, 2025)
# Where “and” joins values, the source holds several entries; their conditions need not be identical. Identical values can stand only once. Like-named read-outs stand apart in the source and are kept apart here.
# Tests used:
# [1] = test system: MDA-MB-231 human breast adenocarcinoma cells (hormone-independent); assay: SRB antiproliferative assay, MDA-MB-231; assay type: cell-based; conditions: Homo sapiens, MDA-MB-231, 48 h incubation
# Experimental: (§1) Stock solutions of compounds 1a–5a and 1–5 (0.01 M) in DMSO were freshly prepared and subsequently diluted with cell culture media to appropriate concentrations for various biological experiments. These included the assessment of cell viability using the SRB assay, micronucleus testing, cell morphology studies, cell cycle arrest, AO/EB staining, and mitochondrial membrane permeabilization tests. For CT-DNA binding studies, experiments were conducted in DMSO/buffer solutions. All biological experiments were performed in triplicate or more.
# (§2) Stock solutions of 1a–5a and 1–5 (0.01 M) were dissolved in DMSO and subsequently diluted with cell culture medium to the desired concentrations (0.5–30 μM). MCF-7, MDA MB-231, and MRC-5 cells were plated in 96-well flat-bottom microplates at various densities: 6000, 8000, and 2000 cells per well, respectively. The cells were incubated for 24 h at 37 °C and then exposed to 1a–5a and 1–5 for 48 h. ,–
# (§3) Cytotoxicity was evaluated using the SRB colorimetric assay at λ = 568 nm, with cell survival percentages calculated relative to the untreated control cells. Detailed information on the SRB assay procedure can be found in the previous publication. ,–
# [2] = test system: MCF-7 human breast adenocarcinoma cells (hormone-dependent); assay: SRB antiproliferative assay, MCF-7; assay type: cell-based; conditions: for IC50: Homo sapiens, MCF7, SRB assay, 48 h incubation; for (%) cells viability: MCF-7 cells, ligands with IC50 higher than 30 μM
# Experimental: as §1, §2, §3
# [3] = test system: normal human fetal lung fibroblast (MRC-5) cells; assay: SRB toxicity assay, MRC-5; assay type: cell-based; conditions: Homo sapiens, MRC5, 48 h incubation
# Experimental: as §1, §2, §3
# MRC-5 cells = test system: MRC-5 cells; parameters: method as in number not given; conditions: cited from earlier work
# MCF-7 cells [4] = test system: MCF-7 cells; parameters: method as in number not given; conditions: cisplatin comparison; ref number not given; cited from earlier work
# MCF-7 cells [5] = test system: MCF-7 cells; parameters: method as in number not given; conditions: cisplatin comparison, ref number not given; cited from earlier work
# [6] = test system: MDA-MB-231 human breast adenocarcinoma cells (hormone-independent); parameters: method as in column not 'this study', ref number not given; conditions: 48 h incubation; ref not 'this study', ref number not given; cited from earlier work
# MCF-7 cells [7] = test system: MCF-7 cells; parameters: method as in number not given; conditions: cisplatin comparison; ref number not given; cited from earlier work; remark: listed apart in the source
# [8] = test system: nontumorigenic human breast epithelial cell line (MCF-10A); parameters: method as in column not 'this study', ref number not given; conditions: 48 h incubation; ref not 'this study', ref number not given; cited from earlier work
# [9] = test system: normal human fetal lung fibroblast (MRC-5) cells; parameters: method as in column not 'this study', ref number not given; conditions: 48 h incubation; ref not 'this study', ref number not given; cited from earlier work
# lipoxygenase (LOX) = biological target: T1, lipoxygenase (LOX) (Glycine max, UniProt P08170); conditions: cisplatin comparison; ref number not given; read-out: IC50 against LOX; cited from earlier work
# T1 sequence (P08170 1-839): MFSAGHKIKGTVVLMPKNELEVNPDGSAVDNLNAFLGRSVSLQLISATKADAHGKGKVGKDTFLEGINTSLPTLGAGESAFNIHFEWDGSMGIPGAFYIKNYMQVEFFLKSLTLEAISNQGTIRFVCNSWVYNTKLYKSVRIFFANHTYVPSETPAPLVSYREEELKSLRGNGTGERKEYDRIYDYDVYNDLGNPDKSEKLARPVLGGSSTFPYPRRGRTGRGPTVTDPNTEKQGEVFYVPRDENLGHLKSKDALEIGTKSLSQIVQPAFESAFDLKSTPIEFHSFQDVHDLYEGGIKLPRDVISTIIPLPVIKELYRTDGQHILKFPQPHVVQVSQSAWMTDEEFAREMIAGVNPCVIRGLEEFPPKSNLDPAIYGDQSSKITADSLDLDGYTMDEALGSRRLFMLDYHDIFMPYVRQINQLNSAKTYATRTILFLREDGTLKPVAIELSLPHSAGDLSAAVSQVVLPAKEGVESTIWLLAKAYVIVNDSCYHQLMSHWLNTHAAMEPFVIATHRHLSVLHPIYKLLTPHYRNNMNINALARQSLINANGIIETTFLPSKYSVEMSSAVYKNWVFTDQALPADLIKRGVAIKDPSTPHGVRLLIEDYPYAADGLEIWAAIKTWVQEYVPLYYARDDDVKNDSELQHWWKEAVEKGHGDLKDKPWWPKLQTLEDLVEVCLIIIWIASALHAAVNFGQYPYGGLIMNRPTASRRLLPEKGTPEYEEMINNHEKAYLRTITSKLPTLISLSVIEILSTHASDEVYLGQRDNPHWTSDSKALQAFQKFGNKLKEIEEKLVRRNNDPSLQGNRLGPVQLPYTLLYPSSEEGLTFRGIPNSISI
# [10] = test system: MCF-7 human breast adenocarcinoma cells (hormone-dependent); conditions: 48 h incubation; ref not 'this study', ref number not given; cited from earlier work
IC50 [1],IC50 [2],Compound,(%) cells viability [2],IC50 [3],further results
> 30 µM,> 30 µM,Sc1nnc(-c2ccccc2Cl)o1 [4a],80.3%,> 30 µM,–
> 30 µM,> 30 µM,S=c1[nH]nc(-c2ccccc2)o1 [1a],84.7%,> 30 µM,–
–,–,N.N.[Cl][Pt][Cl] [cisplatin],–,–,"Percentage of MN (MRC-5 cells; control = 0.8, ref number not given): 1.6 (control = 0.8) %; Relative ratio of MN toward its control (MRC-5 cells; ref number not given): 2.0; Relative rate of MCF-7 cells in sub-G1 phase (MCF-7 cells [4]): 2.9; fluorescence quenching (MMP) (MCF-7 cells [5]): 54.9%; IC50 [6]: 26.7 ± 1.1 µM; relative rate of apoptotic MCF-7 cells (MCF-7 cells [7]): 5.88 and 5.9; IC50 [8]: 11 ± 3 µM; IC50 [9]: 1.1 ± 0.2 µM; IC50 (lipoxygenase (LOX)): 65.9 µM; IC50 [10]: 5.5 ± 0.4 µM"
> 30 µM,> 30 µM,Fc1ccc(-c2nnc(S)o2)cc1 [3a],90.7%,> 30 µM,–
> 30 µM,> 30 µM,Fc1ccccc1-c1nnc(S)o1 [2a],95.7%,> 30 µM,–
–,–,"c1ccc(P(c2ccccc2)c2ccccc2)cc1 [TPP, triphenylphosphine]",–,–,IC50 [6]: > 30 µM; IC50 [9]: > 30 µM; IC50 [10]: 28.9 ± 1.4 µM
> 30 µM,> 30 µM,Sc1nnc(-c2cccc(Cl)c2)o1 [5a],90.1%,> 30 µM,–
